Reference: US10363239B2, “Method for inhibiting growth of cancer cells” (Pain Therapeutics, Inc., priority 2013, dated 2019)
Read-outs that look alike come from different tables or passages of the source.

Columns and labels:
[1] = target: FLNA pentapeptide of SEQ ID NO: 1 (Bn-VAKGL) (Homo sapiens, UniProt P21333); assay: FITC-NLX-based FLNA screening assay (inhibition of FITC-naloxone binding to Bn-VAKGL on streptavidin plates); conditions: 10 nM FITC-NLX
[2] = system: mu opiate receptor (MOR); assay: MOR agonist activity using [35S]GTPγS binding assay in striatal membranes; format: biochemical
In short: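 Striatal membranes (200 μg) were preincubated 5 min at 30 °C in HEPES pH 7.5 with 100 mM NaCl, 1 mM MgCl2 and 0.5 nM [35S]GTPγS, then 5 min more with 0.1–10 μM compound. Gαo was immunoprecipitated and bound radioactivity counted by scintillation.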

[3] = read-out: Percent Binding Inhibition, FLNA-binding compound 0.01 μM
[4] = read-out: Percent Binding Inhibition, FLNA-binding compound 0.1 μM
[5] = read-out: Percent Binding Inhibition, FLNA-binding compound 1 μM
[6] = Series B, 0.1 μM compound, relative to DAMGO
[7] = Series B, 0.1 μM compound, [35S]GTPγS binding to Gαo, striatal membranes
[8] = Series B, 1 μM compound + 1 μM β-FNA
[9] = Series B, 1 μM compound + β-FNA, relative to DAMGO + BFNA
[10] = Series B, 1 μM compound, relative to DAMGO
[11] = Series B, 1 μM compound, [35S]GTPγS binding to Gαo, striatal membranes
[12] = Series C-1, 0.1 μM compound, relative to DAMGO
[13] = Series C-1, 0.1 μM compound, [35S]GTPγS binding to Gαo, striatal membranes
[14] = Series C-1, 1 μM compound + 1 μM β-FNA
[15] = Series C-1, 1 μM compound + β-FNA, relative to DAMGO + BFNA
[16] = Series C-1, 1 μM compound, relative to DAMGO
[17] = Series C-1, 1 μM compound, [35S]GTPγS binding to Gαo, striatal membranes
[18] = FLNA-binding compound 0.01 μM, read-out: Percent Binding Inhibition
[19] = FLNA-binding compound 0.1 μM, read-out: Percent Binding Inhibition
[20] = FLNA-binding compound 1 μM, read-out: Percent Binding Inhibition

| Compound | inhibition at 0.01 µM [1, 3] [%] | inhibition at 0.1 µM [1, 4] [%] | inhibition at 1 µM [1, 5] [%] | % DAMGO (0.1 μM) [2, 6] [%] | MOR agonist activity, percent [35S]GTPγS binding at the stated compound concentration [2, 7] [%] | MOR agonist activity, percent [35S]GTPγS binding at the stated compound concentration [2, 8] [%] | % DAMGO + BFNA [2, 9] [%] | % DAMGO (1 μM) [2, 10] [%] | MOR agonist activity, percent [35S]GTPγS binding at the stated compound concentration [2, 11] [%] | further results |
| --- | --- | --- | --- | --- | --- | --- | --- | --- | --- | --- |
| COc1c2c(cc3c1C(CC(=O)CCc1ccc(F)cc1)[N+](C)(C)CC3)OCO2 (stereo not drawn) [Compound B0018] | 37.2 | 43.7 | 47.6 | 70.3 | 118.8 | 45.6 | 69.1 | 53.5 | 143.0 |  |
| Cc1cccc(S(=O)(=O)N2CCC3(CC2)OCCN3S(=O)(=O)c2cccc(C)c2)c1 [Compound C0014] | 29.5 | 38.8 | 40 |  |  |  |  |  |  | % DAMGO (0.1 μM) [2, 12]: 82.0%; Concentration of FLNA-Binding Compound as Agonist 0.1 μM [2, 13]: 144.9%; Concentration of FLNA-Binding Compound as Agonist 1 μM + BFNA [2, 14]: 76.3%; % DAMGO + BFNA [2, 15]: 116.1%; % DAMGO (1 μM) [2, 16]: 59.2%; Concentration of FLNA-Binding Compound as Agonist 1 μM [2, 17]: 153.5% |
| COc1c2c(cc3c1C(CC(=O)c1cccc(C(F)(F)F)c1)[N+](C)(C)CC3)OCO2 (stereo not drawn) [Compound B0006] | 45.1 | 53.5 | 61.3 | 44.8 | 77.0 | 18.6 | 29.0 | 47.5 | 131.3 |  |
| CC1CCC(C(C)C)C(OCC(O)CN2CCCCCC2)C1 (stereo not drawn) [Compound A0013] |  |  |  |  |  |  |  |  |  | inhibition at 0.01 µM [1, 18]: 30.2%; inhibition at 0.1 µM [1, 19]: 40.2%; inhibition at 1 µM [1, 20]: 47.7%; MOR agonist activity ([35S]GTPγS binding), FLNA-Binding Compound as Agonist 0.1 μM ([2]; 0.1 μM compound): 102.1%; % DAMGO (0.1 μM) ([2]; 0.1 μM compound relative to DAMGO): 57.8%; MOR agonist activity ([35S]GTPγS binding), FLNA-Binding Compound as Agonist 1 μM ([2]; 1 μM compound): 164.8%; MOR agonist activity ([35S]GTPγS binding), FLNA-Binding Compound as Agonist 1 μM + BFNA ([2]; 1 μM compound + 1 μM β-funaltrexamine): 86.1%; % DAMGO + BFNA ([2]; 1 μM compound + BFNA relative to DAMGO + BFNA): 131.1%; % DAMGO (1 μM) ([2]; 1 μM compound relative to DAMGO): 63.6% |
| CCOc1ccc(C(=O)CC2c3c(cc4c(c3OC)OCO4)CC[N+]2(C)C)cc1F (stereo not drawn) [Compound B0020] | 38.1 | 45.5 | 50.6 | 30.1 | 51.6 | 24.9 | 47.8 | 68.0 | 181.6 |  |
| CC(=O)c1ccc(C(=O)N2CCOC23CCN(S(=O)(=O)c2ccc(C(C)=O)cc2)CC3)cc1 [Compound C0053] |  |  |  |  |  |  |  |  |  | inhibition at 0.01 µM [1, 18]: 28.9%; inhibition at 0.1 µM [1, 19]: 33.8%; inhibition at 1 µM [1, 20]: 39.3%; % DAMGO (0.1 μM) [2, 12]: 71.7%; Concentration of FLNA-Binding Compound as Agonist 0.1 μM [2, 13]: 104.0%; Concentration of FLNA-Binding Compound as Agonist 1 μM + BFNA [2, 14]: 93.1%; % DAMGO + BFNA [2, 15]: 211.6%; % DAMGO (1 μM) [2, 16]: 67.5%; Concentration of FLNA-Binding Compound as Agonist 1 μM [2, 17]: 157.2% |
| COCOc1ccc(CCC(=O)CC2c3c(cc4c(c3OC)OCO4)CC[N+]2(C)C)cc1 (stereo not drawn) [Compound B0040] | 40 | 53.1 | 57.1 | 93.2 | 146.0 | 55.3 | 169.6 | 105.1 | 243.3 |  |
